Molecular target: T1, human PI4KIII-beta 13-828 (D316-330) (Homo sapiens, UniProt Q9UBF8)
T1 construct: human PI4KIII-beta 13-828 (D316-330)
Assay: PI4 KB Activity Assay (ADP-GLO Kinase assay)
Assay type: biochemical
Conditions: 1 mM ATP, 60 μM phosphatidylinositol, 3 hours at room temperature; read-out: mean pIC50 (converted)
Experimental: The in vitro inhibition of human PI4KIII-beta 13-828 (D316-330) activity was determined by using the ADP-GLO Kinase assay kit from Promega. Inhibitors were dissolved in 100% DMSO at a concentration of 1 mM. Dilutions were prepared in 100% DMSO using a 1 in 3 serial step dilution. A 60 nL stamp from an 11-point titration was transferred to a white low volume 384 well Greiner assay plate ensuring a final DMSO concentration of 1% across the plate and a top final concentration of inhibitor of 10 μM. The PI4KIII-beta assay contained 25 mM Hepes pH 7.5 (NaOH), 10 mM MgCl2, 0.5 mM EGTA, 0.1% Triton X-100, 2 mM TCEP, and 0.1 mg/ml BSA, 1 mM ATP, 60 μM phosphatidylinositol, and 1.5 nM human PI4K-beta 13-828 (D316-330) in a total volume of 6 μL. The assay was initiated with the addition of enzyme, covered, and incubated at room temperature for 3 hours. The assays were stopped with the addition of 6 μl ADP-GLO Reagent containing 0.1% CHAPS to deplete the unconsumed ATP. The plates were incubated at room temperature for 60 min and then 12 μl of the Kinase Detection Reagent containing 0.1% CHAPS was added to convert ADP to ATP and introduce luciferase and luciferin. After 40 min incubation at room temperature the luminescent signal was read on a BMG Labtech PHERAstar FS with the following settings; Gain 3600, Focal height 13.7 mm, measurement interval time 1 s, Settling time 0.2 s. The inhibitory effect of the PI4K-beta activity of the compounds was evaluated by the IC50 of the response relative to the high, no compound, and low, no enzyme, controls by fitting to the four parameter dose response question.

T1 sequence (Q9UBF8 1-801 isoform Q9UBF8-2): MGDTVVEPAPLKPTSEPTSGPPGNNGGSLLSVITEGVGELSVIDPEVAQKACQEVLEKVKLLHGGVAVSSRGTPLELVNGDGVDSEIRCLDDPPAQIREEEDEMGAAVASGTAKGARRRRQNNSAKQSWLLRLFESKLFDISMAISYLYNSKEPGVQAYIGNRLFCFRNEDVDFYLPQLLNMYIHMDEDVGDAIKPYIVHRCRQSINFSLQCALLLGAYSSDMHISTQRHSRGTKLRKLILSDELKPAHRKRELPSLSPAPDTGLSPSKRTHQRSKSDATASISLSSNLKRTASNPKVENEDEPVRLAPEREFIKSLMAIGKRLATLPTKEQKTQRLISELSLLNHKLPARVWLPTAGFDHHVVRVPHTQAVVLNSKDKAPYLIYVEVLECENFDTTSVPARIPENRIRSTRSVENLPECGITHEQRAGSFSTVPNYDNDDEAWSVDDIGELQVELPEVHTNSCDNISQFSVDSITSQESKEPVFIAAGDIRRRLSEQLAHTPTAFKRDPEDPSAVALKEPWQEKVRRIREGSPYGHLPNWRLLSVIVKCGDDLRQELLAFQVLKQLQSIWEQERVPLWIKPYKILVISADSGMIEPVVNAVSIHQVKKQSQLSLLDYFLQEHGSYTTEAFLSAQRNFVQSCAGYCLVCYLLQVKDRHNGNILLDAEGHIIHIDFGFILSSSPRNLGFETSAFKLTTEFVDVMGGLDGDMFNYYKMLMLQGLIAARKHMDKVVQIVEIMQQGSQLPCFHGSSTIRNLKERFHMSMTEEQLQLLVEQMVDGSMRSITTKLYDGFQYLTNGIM

Compound | IC50 [nM]
Cc1ccc(-c2c(C)nn3c(NCc4cccc(-c5nccn5C)c4)cc(C(C)(C)O)nc23)cc1C(=O)N(C)CCO [Compound 43, N-(2-hydroxyethyl)-5-(5-(2-hydroxypropan-2-yl)-2-methyl-7-((3-(1-methyl-1H-imidazol-2-yl)benzyl)amino)pyrazolo[1,5-a]pyrimidin-3-yl)-N,2-dimethylbenzamide] | ≤ 3.98
COc1ccc(-c2c(C)nn3c(NCc4cccc(-c5nccn5C)c4)cc(C(C)(C)O)nc23)cc1C(=O)N(C)[C@@H](C)CO [Compound 20, (S)—N-(1-hydroxypropan-2-yl)-5-(5-(2-hydroxypropan-2-yl)-2-methyl-7-((3-(1-methyl-1H-imidazol-2-yl)benzyl)amino)pyrazolo[1,5-a]pyrimidin-3-yl)-2-methoxy-N-methylbenzamide] | ≤ 3.98
COc1ccc(-c2c(C)nn3c(NCc4cccc(-n5cccn5)c4)cc(C(C)(C)O)nc23)cc1C(=O)N1CCC(C)(O)C1 (stereo not shown) [Compound 51] | ≤ 3.98
Cc1ccc(-c2c(C)nn3c(NCc4cccc(-c5nccn5C)c4)cc(C(C)(C)O)nc23)cc1C(=O)N(C)C1CCOC1 (stereo not shown) [Compound 59, 5-(5-(2-Hydroxypropan-2-yl)-2-methyl-7-((3-(1-methyl-1H-imidazol-2-yl)benzyl)amino)pyrazolo[1,5-a]pyrimidin-3-yl)-N,2-dimethyl-N-(tetrahydrofuran-3-yl)benzamide] | ≤ 3.98
Cc1ccc(-c2c(C)nn3c(NCc4cccc(-n5cccn5)c4)cc(C(C)(C)O)nc23)cc1C(=O)N(C)CCCO [Compound 34] | ≤ 3.98
CCC(O)c1cc(NCc2cccc(-c3nccn3C)c2)n2nc(C)c(-c3ccc(OC)c(S(=O)(=O)CCO)c3)c2n1 (stereo not shown) [Compound 3] | ≤ 3.98
Cc1ccc(-c2c(C)nn3c(NCc4cccc(-n5cccn5)c4)cc(C(C)(C)O)nc23)cc1C(=O)N(C)CCO [Compound 47] | ≤ 3.98
Cc1ccc(-c2c(C)nn3c(NCc4cccc(-c5nccn5C)c4)cc(C(C)(C)O)nc23)cc1C(=O)N(C)C(C)CO (stereo not shown) [Compound 40] | ≤ 3.98
Cc1ccc(-c2c(C)nn3c(NCc4cccc(-n5cccn5)c4)cc(C(C)(C)O)nc23)cc1C(=O)N1CC[C@H](O)C1 [Compound 50] | ≤ 3.98
CCC(CO)c1cc(NCc2cccc(-c3nccn3C)c2)n2nc(C)c(-c3ccc(OC)c(S(=O)(=O)CCO)c3)c2n1 (stereo not shown) [Compound 86, 2-(3-(3-((2-Hydroxyethyl)sulfonyl)-4-methoxyphenyl)-2-methyl-7-((3-(1-methyl-1H-imidazol-2-yl)benzyl)amino)pyrazolo[1,5-a]pyrimidin-5-yl)butan-1-ol] | ≤ 3.98
COc1ccc(-c2c(C)nn3c(NCc4cccc(-n5cccn5)c4)cc(C(C)(C)O)nc23)cc1C(=O)N1CCC[C@@H]1CO [Compound 49] | ≤ 3.98
CCC(CO)c1cc(NCc2cccc(-c3nccn3C)c2)n2nc(C)c(-c3ccc(C)c(C(=O)N(C)CCCO)c3)c2n1 (stereo not shown) [Compound 65, 5-(5-(1-Hydroxybutan-2-yl)-2-methyl-7-((3-(1-methyl-1H-imidazol-2-yl)benzyl)amino)pyrazolo[1,5-a]pyrimidin-3-yl)-N-(3-hydroxypropyl)-N,2-dimethylbenzamide] | ≤ 3.98
COc1ccc(-c2c(C)nn3c(NCc4cccc(-n5cccn5)c4)cc(C(C)(C)O)nc23)cc1C(=O)N1CC[C@H](O)C1 [Compound 52] | ≤ 3.98
Cc1nn2c(NCc3cccc(-c4nccn4C)c3)cc(C(C)(C)O)nc2c1-c1ccc(Cl)c(C(=O)N(C)CCCO)c1 [Compound 7, 2-Chloro-5-(5-(2-hydroxypropan-2-yl)-2-methyl-7-((3-(1-methyl-1H-imidazol-2-yl)benzyl)amino)pyrazolo[1,5-a]pyrimidin-3-yl)-N-(3-hydroxypropyl)-N-methylbenzamide] | ≤ 3.98
Cc1nn2c(NCc3cccc(-c4nccn4C)c3)cc(C(C)O)nc2c1-c1ccc(Cl)c(C(=O)N(C)CCCO)c1 (stereo not shown) [Compound 10] | ≤ 3.98
Cc1ccc(-c2c(C)nn3c(NCc4cccc(-n5cccn5)c4)cc(C(C)(C)O)nc23)cc1C(=O)N1CCC[C@@H]1CO [Compound 35] | ≤ 3.98
COc1ccc(-c2c(C)nn3c(NCc4cccc(-c5nccn5C)c4)cc(C(C)(C)O)nc23)cc1C(=O)N(C)C(C)CO (stereo not shown) [Compound 42] | ≤ 3.98
COc1ccc(-c2c(C)nn3c(NCc4cccc(-c5nccn5C)c4)cc(C(C)O)nc23)cc1S(C)(=O)=O (stereo not shown) [Compound 1, 1-(3-(4-Methoxy-3-(methylsulfonyl)phenyl)-2-methyl-7-((3-(1-methyl-1H-imidazol-2-yl)benzyl)amino)pyrazolo[1,5-a]pyrimidin-5-yl)ethanol] | ≤ 3.98
Cc1ccc(-c2c(C)nn3c(NCc4cccc(-c5nccn5C)c4)cc(C(C)(C)O)nc23)cc1C(=O)N1CC[C@H](O)C1 [Compound 29, (S)-(5-(5-(2-hydroxypropan-2-yl)-2-methyl-7-((3-(1-methyl-1H-imidazol-2-yl)benzyl)amino)pyrazolo[1,5-a]pyrimidin-3-yl)-2-methylphenyl)(3-hydroxypyrrolidin-1-yl)methanone] | ≤ 3.98
COc1ccc(-c2c(C)nn3c(NCc4cccc(-c5nccn5C)c4)cc(C(C)CO)nc23)cc1S(=O)(=O)CCO (stereo not shown) [Compound 53, 2-(3-(3-((2-Hydroxyethyl)sulfonyl)-4-methoxyphenyl)-2-methyl-7-((3-(1-methyl-1H-imidazol-2-yl)benzyl)amino)pyrazolo[1,5-a]pyrimidin-5-yl)propan-1-ol] | ≤ 3.98
Cc1ccc(-c2c(C)nn3c(NCc4cccc(-c5nccn5C)c4)cc(C(C)(C)O)nc23)cc1C(=O)N(C)CC(C)O (single isomer, unassigned) [Compound 62, 5-(5-(2-Hydroxypropan-2-yl)-2-methyl-7-((3-(1-methyl-1H-imidazol-2-yl)benzyl)amino)pyrazolo[1,5-a]pyrimidin-3-yl)-N-(2-hydroxypropyl)-N,2-dimethylbenzamide] | ≤ 3.98
Cc1ccc(-c2c(C)nn3c(NCc4cccc(-c5nccn5C)c4)cc(C(C)(C)O)nc23)cc1C(=O)N(C)[C@H](C)CO [Compound 39] | ≤ 3.98

Reference: patent US11649238B2, “Substituted pyrazolo[1,5-a]pyrimidines as PI4K inhibitors” (GLAXOSMITHKLINE INTELLECTUAL PROPERTY DEVELOPMENT LIMITED, priority 2018, dated 2023)
